The numbers were not newly measured in patent US10632043B2, “Premix formulation for parenteral use and packaging thereof” (Aurobindo Pharma Ltd, priority 2015, dated 2020), which cites them from elsewhere.

Like-named read-outs stand apart in the source and are kept apart here.

The conditions of this data set: for time stable: diluted to 4 mg/mL in 0.9% sodium chloride injection, polypropylene (PP) syringes.

Regarding `Cc1cccc([C@H](C)c2cnc[nH]2)c1C` [dexmedetomidine], the “loss of drug potency” value (PP syringe, over 48 hours) is given as “about 5%”. Also, the time stable is 14 days (5° C.) and 2 days (20-25° C.). The “loss of drug concentration” value reads like this: (syringes at room temperature, over 48 hours) less than 10%; (syringes, refrigerated, over 14 days) less than 5%.
